Assay results: patent publication US20230183193A1, “4-DIFLUOROMETHYL BENZOYL AMIDES WITH HERBICIDAL ACTION” (BAYER CROPSCIENCE AKTIENGESELLSCHAFT, priority 2017, published 2023)

Experiments:
Abutilon theophrasti [1] = assay: Pre-emergence herbicidal action, ABUTH; type: in vivo; details: for Herbicidal efficacy against ABUTH: Table K; for herbicidal activity ABUTH: scored visually after 3 weeks vs untreated controls
In short: (§1)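 Percent herbicidal activity rated by eye 3 weeks after pre-emergence soil-surface application, compared with untreated pots. Seeds sat under sandy loam; sprays carried 0.2% wetting agent.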

Alopecurus myosuroides [2] = assay: Pre-emergence herbicidal action, ALOMY; type: in vivo; details: for herbicidal activity ALOMY: dosage 320 g/ha, scored visually after 3 weeks vs untreated controls
In short: as §1

Amaranthus retroflexus [3] = assay: Pre-emergence herbicidal action, AMARE; type: in vivo; details: dosage 320 g/ha, scored visually after 3 weeks vs untreated controls
In short: as §1

Avena fatua [4] = assay: Pre-emergence herbicidal action, AVEFA; type: in vivo; details: for herbicidal activity AVEFA: dosage 320 g/ha, scored visually after 3 weeks vs untreated controls
In short: as §1

Cyperus serotinus = assay: Pre-emergence herbicidal action, CYPES; type: in vivo; details: for herbicidal activity CYPES: dosage 320 g/ha, scored visually after 3 weeks vs untreated controls
In short: as §1

Matricaria inodora = assay: Pre-emergence herbicidal action, MATIN; type: in vivo; details: for Herbicidal efficacy against MATIN: Table K; for herbicidal activity MATIN: scored visually after 3 weeks vs untreated controls
In short: as §1

Polygonum convolvulus = assay: Pre-emergence herbicidal action, POLCO; type: in vivo; details: Table K
Source text: 1. Pre-Emergence Herbicidal Action Against Harmful Plants Seeds of monocotyledonous and dicotyledonous weed plants and crop plants are laid out in sandy loam soil in wood-fiber pots and covered with soil. The compounds of the invention, formulated in the form of wettable powders (WP) or as emulsion concentrates (EC), are then applied to the surface of the covering soil in the form of an aqueous suspension or emulsion at a water application rate equating to […], with addition of 0.2% wetting agent. After the treatment, the pots are placed in a greenhouse and kept under good growth conditions for the trial plants. The damage to the test plants is scored visually after a test period of 3 weeks by comparison with untreated controls (herbicidal activity in percent (%): 100% activity=the plants have died, 0% activity=like control plants).
For comparison, the herbicidal activity of numerous compounds according to the invention was tested with the structurally closest compounds known from the documents WO 2011/035874, WO 2012/028579 and WO 2012/126932, by the pre- and post-emergence method.

Setaria viridis [5] = assay: Pre-emergence herbicidal action, SETVI; type: in vivo; details: for herbicidal activity SETVI: dosage 320 g/ha, scored visually after 3 weeks vs untreated controls
In short: as §1

Stellaria media [6] = assay: Pre-emergence herbicidal action, STEME; type: in vivo; details: dosage 320 g/ha, scored visually after 3 weeks vs untreated controls
In short: as §1

Viola tricolor [7] = assay: Pre-emergence herbicidal action, VIOTR; type: in vivo; details: for Herbicidal efficacy against VIOTR: Table K; for herbicidal activity VIOTR: scored visually after 3 weeks vs untreated controls
In short: as §1

Abutilon theophrasti [8] = assay: Post-emergence herbicidal action, ABUTH; type: in vivo; details: 80 g/ha, Table D
In short: (§2)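 Herbicidal effect is rated visually as percent versus untreated plants (100% = dead, 0% = like control) about 3 weeks after spraying. Plants were sown in sandy loam in the greenhouse and sprayed on green parts at the one-leaf stage, 2 to 3 weeks post-sowing.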

Alopecurus myosuroides [9] = assay: Post-emergence herbicidal action, ALOMY; type: in vivo; details: for herbicidal activity ALOMY: Table C
In short: as §2

Amaranthus retroflexus [10] = assay: Post-emergence herbicidal action, AMARE; type: in vivo; details: 80 g/ha, Table D
In short: as §2

Avena fatua [11] = assay: Post-emergence herbicidal action, AVEFA; type: in vivo; details: for herbicidal activity AVEFA: Table C
In short: as §2

Pharbitis purpureum = assay: Post-emergence herbicidal action, PHBPU; type: in vivo; details: 80 g/ha, Table D
In short: as §2

Setaria viridis [12] = assay: Post-emergence herbicidal action, SETVI; type: in vivo; details: for herbicidal activity SETVI: Table C
In short: as §2

Stellaria media [13] = assay: Post-emergence herbicidal action, STEME; type: in vivo; details: for Herbicidal activity STEME: Table D
In short: as §2

Viola tricolor [14] = assay: Post-emergence herbicidal action, VIOTR; type: in vivo; details: for herbicidal activity VIOTR: Table D
In short: as §2

ECHCG [15] = assay: Post-emergence herbicidal action, ECHCG; type: in vivo; details: 80 g/ha, Table C
In short: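 Weed and crop plants grown in sandy loam in the greenhouse, treated at the one-leaf stage 2–3 weeks after sowing. Damage scored visually after about 3 weeks vs untreated controls (0% = control, 100% = dead).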

ECHCG [16] = assay: Pre-emergence herbicidal action, ECHCG; type: in vivo, Echinochloa crus-galli

CSc1c(C(F)F)ccc(C(=O)Nc2nnnn2C)c1C [Example 1-1]
100: Herbicidal efficacy against ABUTH (Abutilon theophrasti [1]; dosage 80 g/ha) | Herbicidal efficacy against SETVI (Setaria viridis [5]; 80 g/ha) | Herbicidal efficacy against VIOTR (Viola tricolor [7]; dosage 20 g/ha) | Herbicidal efficacy against VIOTR (Viola tricolor [7]; dosage 80 g/ha) | Herbicidal efficacy against AVEFA (Avena fatua [11]; 80 g/ha) | Herbicidal efficacy against SETVI (Setaria viridis [12]; 5 g/ha) | Herbicidal efficacy against SETVI (Setaria viridis [12]; 20 g/ha) | Herbicidal efficacy against SETVI (Setaria viridis [12]; 80 g/ha) | Herbicidal efficacy against STEME (Stellaria media [13]; 5 g/ha) | Herbicidal efficacy against STEME (Stellaria media [13]; 20 g/ha) | Herbicidal efficacy against STEME (Stellaria media [13]; 80 g/ha) | Herbicidal efficacy against VIOTR (Viola tricolor [14]; 5 g/ha) | Herbicidal efficacy against VIOTR (Viola tricolor [14]; 20 g/ha) | Herbicidal efficacy against VIOTR (Viola tricolor [14]; 80 g/ha) | Herbicidal efficacy against ECHCG (ECHCG [16]; 80 g/ha)
90%: herbicidal activity ALOMY (Alopecurus myosuroides [9]; 80 g/ha) | Herbicidal activity PHBPU (Pharbitis purpureum)
80: Herbicidal efficacy against ECHCG (ECHCG [16]; 20 g/ha)
100%: herbicidal activity ABUTH (Abutilon theophrasti [1]; dosage 320 g/ha) | herbicidal activity ALOMY (Alopecurus myosuroides [2]) | herbicidal activity AMARE (Amaranthus retroflexus [3]) | herbicidal activity AVEFA (Avena fatua [4]) | herbicidal activity MATIN (Matricaria inodora; dosage 320 g/ha) | herbicidal activity SETVI (Setaria viridis [5]) | Herbicidal activity STEME (Stellaria media [6]) | herbicidal activity VIOTR (Viola tricolor [7]; dosage 320 g/ha) | herbicidal activity ABUTH (Abutilon theophrasti [8]) | herbicidal activity AMARE (Amaranthus retroflexus [10]) | herbicidal activity AVEFA (Avena fatua [11]; 80 g/ha) | herbicidal activity SETVI (Setaria viridis [12]; 80 g/ha) | Herbicidal activity STEME (Stellaria media [13]; 80 g/ha) | herbicidal activity VIOTR (Viola tricolor [14]; 80 g/ha) | Herbicidal activity ECHCG (ECHCG [15])
90: Herbicidal efficacy against ABUTH (Abutilon theophrasti [1]; dosage 20 g/ha) | Herbicidal efficacy against ALOMY (Alopecurus myosuroides [2]; 20 g/ha) | Herbicidal efficacy against ALOMY (Alopecurus myosuroides [2]; 80 g/ha) | Herbicidal efficacy against AVEFA (Avena fatua [4]; 80 g/ha) | Herbicidal efficacy against MATIN (Matricaria inodora; dosage 80 g/ha) | Herbicidal efficacy against ALOMY (Alopecurus myosuroides [9]; 20 g/ha) | Herbicidal efficacy against ALOMY (Alopecurus myosuroides [9]; 80 g/ha) | Herbicidal efficacy against AVEFA (Avena fatua [11]; 20 g/ha)
40: Herbicidal efficacy against AVEFA (Avena fatua [11]; 5 g/ha)
80%: herbicidal activity CYPES (Cyperus serotinus)
60: Herbicidal efficacy against POLCO (Polygonum convolvulus; dosage 20 g/ha) | Herbicidal efficacy against ALOMY (Alopecurus myosuroides [9]; 5 g/ha)
70: Herbicidal efficacy against CYPES (Cyperus serotinus; 80 g/ha) | Herbicidal efficacy against MATIN (Matricaria inodora; dosage 20 g/ha) | Herbicidal efficacy against POLCO (Polygonum convolvulus; dosage 80 g/ha) | Herbicidal efficacy against SETVI (Setaria viridis [5]; 20 g/ha)
30: Herbicidal efficacy against CYPES (Cyperus serotinus; 20 g/ha)

Cc1c(C(=O)Nc2nnnn2C)ccc(C(F)F)c1S(C)(=O)=O [Example 1-3]
90: Herbicidal efficacy against ALOMY (Alopecurus myosuroides [2]; 80 g/ha) | Herbicidal efficacy against CYPES (Cyperus serotinus; 80 g/ha) | Herbicidal efficacy against CYPES (Cyperus serotinus; 320 g/ha) | Herbicidal efficacy against POLCO (Polygonum convolvulus; dosage 80 g/ha) | Herbicidal efficacy against POLCO (Polygonum convolvulus; dosage 320 g/ha) | Herbicidal efficacy against ALOMY (Alopecurus myosuroides [9]; 80 g/ha) | Herbicidal efficacy against SETVI (Setaria viridis [12]; 5 g/ha) | Herbicidal efficacy against SETVI (Setaria viridis [12]; 80 g/ha) | Herbicidal efficacy against STEME (Stellaria media [13]; 5 g/ha) | Herbicidal efficacy against ECHCG (ECHCG [16]; 20 g/ha)
70: Herbicidal efficacy against SETVI (Setaria viridis [5]; 20 g/ha) | Herbicidal efficacy against AVEFA (Avena fatua [11]; 5 g/ha)
100%: herbicidal activity ABUTH (Abutilon theophrasti [1]; dosage 320 g/ha) | herbicidal activity ALOMY (Alopecurus myosuroides [2]) | herbicidal activity AMARE (Amaranthus retroflexus [3]) | herbicidal activity AVEFA (Avena fatua [4]) | herbicidal activity MATIN (Matricaria inodora; dosage 320 g/ha) | herbicidal activity SETVI (Setaria viridis [5]) | Herbicidal activity STEME (Stellaria media [6]) | herbicidal activity VIOTR (Viola tricolor [7]; dosage 320 g/ha) | herbicidal activity AVEFA (Avena fatua [11]; 80 g/ha) | Herbicidal activity PHBPU (Pharbitis purpureum) | Herbicidal activity STEME (Stellaria media [13]; 80 g/ha) | herbicidal activity VIOTR (Viola tricolor [14]; 80 g/ha)
60: Herbicidal efficacy against ALOMY (Alopecurus myosuroides [9]; 5 g/ha)
100: Herbicidal efficacy against ABUTH (Abutilon theophrasti [1]; dosage 20 g/ha) | Herbicidal efficacy against ABUTH (Abutilon theophrasti [1]; dosage 80 g/ha) | Herbicidal efficacy against ABUTH (Abutilon theophrasti [1]; dosage 320 g/ha) | Herbicidal efficacy against ALOMY (Alopecurus myosuroides [2]; 320 g/ha) | Herbicidal efficacy against AVEFA (Avena fatua [4]; 80 g/ha) | Herbicidal efficacy against AVEFA (Avena fatua [4]; 320 g/ha) | Herbicidal efficacy against MATIN (Matricaria inodora; dosage 80 g/ha) | Herbicidal efficacy against MATIN (Matricaria inodora; dosage 320 g/ha) | Herbicidal efficacy against SETVI (Setaria viridis [5]; 80 g/ha) | Herbicidal efficacy against SETVI (Setaria viridis [5]; 320 g/ha) | Herbicidal efficacy against VIOTR (Viola tricolor [7]; dosage 20 g/ha) | Herbicidal efficacy against VIOTR (Viola tricolor [7]; dosage 80 g/ha) | Herbicidal efficacy against VIOTR (Viola tricolor [7]; dosage 320 g/ha) | Herbicidal efficacy against AVEFA (Avena fatua [11]; 80 g/ha) | Herbicidal efficacy against STEME (Stellaria media [13]; 80 g/ha) | Herbicidal efficacy against VIOTR (Viola tricolor [14]; 5 g/ha) | Herbicidal efficacy against VIOTR (Viola tricolor [14]; 80 g/ha) | Herbicidal efficacy against ECHCG (ECHCG [16]; 80 g/ha) | Herbicidal efficacy against ECHCG (ECHCG [16]; 320 g/ha)
50: Herbicidal efficacy against ALOMY (Alopecurus myosuroides [2]; 20 g/ha)
90%: herbicidal activity CYPES (Cyperus serotinus) | herbicidal activity ALOMY (Alopecurus myosuroides [9]; 80 g/ha) | herbicidal activity SETVI (Setaria viridis [12]; 80 g/ha) | Herbicidal activity ECHCG (ECHCG [15])
80%: herbicidal activity ABUTH (Abutilon theophrasti [8])
30: Herbicidal efficacy against CYPES (Cyperus serotinus; 20 g/ha) | Herbicidal efficacy against POLCO (Polygonum convolvulus; dosage 20 g/ha)
80: Herbicidal efficacy against AVEFA (Avena fatua [4]; 20 g/ha) | Herbicidal efficacy against MATIN (Matricaria inodora; dosage 20 g/ha)
